Reference: ChEMBL document CHEMBL3621091, “Optimisation of a triazolopyridine based histone demethylase inhibitor yields a potent and selective KDM2A (FBXL11) inhibitor” (Medchemcomm, 2014)

Experiments:
Assay type in all cases: physicochemical
Settings in all cases: read-out: Peff
[1] = Membrane permeability of the compound at pH 5 by PAMPA
[2] = Membrane permeability of the compound at pH 6.2 by PAMPA
[3] = Membrane permeability of the compound at pH 7.4 by PAMPA

Row | Papp [1] [×10⁻⁶ cm/s] | Papp [2] [×10⁻⁶ cm/s] | Papp [3] [×10⁻⁶ cm/s] | SMILES
1 | 1.9 | 0.41 | 0.69 | O=C(O)c1ccnc(-c2cn([C@@H]3CCCN(C(=O)c4ccccc4)C3)nn2)c1
2 | 56 | 45 | 52 | COC(=O)c1ccnc(-c2cn([C@@H]3CCCN(C(=O)c4ccccc4)C3)nn2)c1
